Experimental data as given in PubChem BioAssay (NCI).
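Protocol summary: plate cells (96-well), add compound at 5 concentrations, incubate 48 h, interpolate endpoints linearly. TGI: concentration producing complete growth inhibition.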

Tests used:
Experiment in all cases: NCI-60 cell line screen, 48 h
SF-539 CNS = tested on: SF-539 CNS
HS 578T breast = tested on: HS 578T breast
NCI-H522 lung = tested on: NCI-H522 lung
SF-295 CNS = tested on: SF-295 CNS
IGROV1 ovarian = tested on: IGROV1 ovarian
OVCAR-8 ovarian = tested on: OVCAR-8 ovarian
SN12C renal = tested on: SN12C renal
CAKI-1 renal = tested on: CAKI-1 renal
SR leukemia = tested on: SR leukemia
786-0 renal = tested on: 786-0 renal
MCF7 breast = tested on: MCF7 breast
ACHN renal = tested on: ACHN renal
M14 melanoma = tested on: M14 melanoma
OVCAR-4 ovarian = tested on: OVCAR-4 ovarian
T-47D breast = tested on: T-47D breast
CCRF-CEM leukemia = tested on: CCRF-CEM leukemia
TK-10 renal = tested on: TK-10 renal
KM12 colon = tested on: KM12 colon
HOP-62 NSCLC = tested on: HOP-62 NSCLC
SK-MEL-28 melanoma = tested on: SK-MEL-28 melanoma
SK-MEL-5 melanoma = tested on: SK-MEL-5 melanoma
HT29 colon = tested on: HT29 colon
HCT-15 colon = tested on: HCT-15 colon
HCT-116 colon = tested on: HCT-116 colon
COLO 205 colon = tested on: COLO 205 colon
EKVX NSCLC = tested on: EKVX NSCLC
SNB-19 CNS = tested on: SNB-19 CNS
NCI/ADR-RES ovarian = tested on: NCI/ADR-RES ovarian
UO-31 renal = tested on: UO-31 renal
SF-268 CNS = tested on: SF-268 CNS
RXF 393 renal = tested on: RXF 393 renal
NCI-H460 lung = tested on: NCI-H460 lung
SNB-75 CNS = tested on: SNB-75 CNS
PC-3 prostate = tested on: PC-3 prostate
MALME-3M melanoma = tested on: MALME-3M melanoma
BT-549 breast = tested on: BT-549 breast
UACC-257 melanoma = tested on: UACC-257 melanoma
NCI-H226 lung = tested on: NCI-H226 lung
MDA-MB-435 = tested on: MDA-MB-435
LOX IMVI melanoma = tested on: LOX IMVI melanoma
HCC-2998 colon = tested on: HCC-2998 colon
K-562 leukemia = tested on: K-562 leukemia
OVCAR-5 ovarian = tested on: OVCAR-5 ovarian
UACC-62 melanoma = tested on: UACC-62 melanoma
MDA-MB-231 breast = tested on: MDA-MB-231 breast
SK-OV-3 ovarian = tested on: SK-OV-3 ovarian
OVCAR-3 ovarian = tested on: OVCAR-3 ovarian
SK-MEL-2 melanoma = tested on: SK-MEL-2 melanoma
SW-620 colon = tested on: SW-620 colon
A549 NSCLC = tested on: A549 NSCLC
NCI-H23 lung = tested on: NCI-H23 lung
DU-145 prostate = tested on: DU-145 prostate
MDA-N = tested on: MDA-N
HL-60(TB) leukemia = tested on: HL-60(TB) leukemia
MOLT-4 leukemia = tested on: MOLT-4 leukemia
U251 CNS = tested on: U251 CNS
A498 renal = tested on: A498 renal
HOP-92 NSCLC = tested on: HOP-92 NSCLC
RPMI-8226 leukemia = tested on: RPMI-8226 leukemia

Measured: TGI

CC(C)N(C(C)C)S(=O)(=O)CC12CCC(C/C1=N\O)C2 (stereo unspecified)
not listed: A498 renal | HOP-92 NSCLC | RPMI-8226 leukemia
> 100 µM: all other assays above

Cc1nc(C)c(N2CCN(Cc3ccccc3)CC2)c(=O)[nH]1
not listed: CAKI-1 renal | SNB-75 CNS | OVCAR-5 ovarian | SK-MEL-2 melanoma
> 100 µM: all other assays above
